Key:
[1] = tested on: Methanobrevibacter boviskoreani JH1; assay: Plate-based methanogen bioassay of culture filtrates (Example 1, phosphate buffer); assay type: cell-based; settings: filtered supernatant 30% v/v (nisin 4 μM); 5 days at 39° C.; OD600 relative to methanogen without treatment; 16 wells
Protocol: The inoculum of an indicator methanogen strain (Methanobrevibacter boviskoreani JH1) for seeding the plate assay was grown in 9 mL BY medium (Joblin, 2005) supplemented with 0.2 mL of 3 M sodium formate, 0.2 mL of 10 M ethanol, 0.1 mL of Vitamin Solution (Janssen et al., 1997) and 0.1 mL of Coenzyme M Solution (Sigma Aldrich, 0.1 M) by syringe using anaerobic techniques. The head spaces of the tubes were pumped with pressurized O2-free CO2 to 180 kPa and the tubes were incubated at 39° C. without shaking until visible turbidity appeared after 3 to 5 days. Methane produced by the methanogen strain was measured by removing a sample of the headspace gases by syringe and injecting on to a gas chromatograph (GC; Aerograph Corporation, USA) equipped with a Thermal Conductivity Detector (TCD) and using nitrogen as the carrier gas. […] The cultures were routinely observed via wet mounts under fluorescence microscopy, and the methanogen strain appears as short ovoid-shaped rods that fluoresce green under ultraviolet (UV) illumination. […]
Cultures of L. rhamnosus HN001, and control strains (L. plantarum ATCC 8014, L. bulgaricus ATCC 11842) were grown overnight in MRS broth (Sigma-Aldrich) at 39° C. The optical density at 600 nm (OD600) was measured for each culture, and a sample of each was serially diluted through MRS medium and the dilutions plated onto MRS agar plates to determine viable counts. […]

[2] = tested on: Methanobrevibacter boviskoreani JH1; assay: Plate-based methanogen bioassay of bacteriocin extract and supernatant samples (Example 2, MOPS buffer); assay type: cell-based; settings: for Mean % Growth JH1 / Mean % Inhibition: 30% v/v, sample 1 vs 0.9% NaCl, samples 2-7 vs MRS + NH4 lactate
Protocol: Cultures of the indicator methanogen strain were prepared according to item 1.1.1 of Example 1.
Cell and supernatant samples of L. rhamnosus HN001 were derived from a commercial manufacturing run of ˜5,000 L under standard production conditions. Four samples were used, consisting of: • Sample 1. L. rhamnosus HN001 cell sample, unwashed, freeze-dried, low pH extract. • Sample 2. L. rhamnosus HN001 supernatant sample, evaporated @50° C., 35% solids, ˜8× concentrated. • Sample 3. L. rhamnosus HN001 supernatant sample, evaporated @50° C., 45%+solids; ˜11× concentrated. • Sample 4. L. rhamnosus HN001 supernatant sample, freeze-dried.
These samples were kept frozen at −20° C. until needed. Prior to bioassay, the cell sample (Sample 1) was resuspended at 5% (wt/vol) in 0.9% NaCl, pH 6.8, and processed using the bacteriocin extraction method described in 2.1.3 below, resulting in an extract which was stored frozen at −20° C. until use. The evaporated supernatant samples (Samples 2 & 3) and the freeze-dried supernatant sample (Sample 4) were also resuspended at 5% (wt/vol) in 0.9% NaCl, pH 6.8 and filtered through Millex-GP 0.22 μm 25 mm diameter sterile filters (Millipore, Merck, Sigma-Aldrich NZ) into sterile N2-flushed Hungate tubes using 10 mL syringes. The headspace of the Hungate tubes were further flushed for 30 min with a sterile flow of N2 to remove traces of O2 from the samples.
Heat treatments were carried out with the L. rhamnosus HN001 supernatant which generated a further three samples as follows: • Sample 5. L. rhamnosus HN001 supernatant sample, heated at 72° C./15 sec. • Sample 6. L. rhamnosus HN001 supernatant sample, heated at 75° C./4 min. • Sample 7. L. rhamnosus HN001 supernatant sample, heated at 100° C./4 min.
After heat treatment, the samples were filtered through 0.22 μm filters as described above into sterile N2-flushed Hungate tubes and the headspace flushed with a sterile flow of N2. The samples were stored at −20° C. until screening in the indicator methanogen bioassay.
The resuspended culture was transferred into a 15 mL Falcon tube and the pH adjusted to ˜6.8 with 6M NaOH. The pH-adjusted culture sample was incubated at 70° C. for 45 minutes, then centrifuged for 15 min at 2600×g at 4° C. The supernatant was decanted and the cell pellet was resuspended in 8 mL 0.9% NaCl, pH 2. The pH of the resuspended pellet was checked and if necessary, 1M HCl was used to adjust the final pH to 2. The cells were incubated for 2 hours at 4° C. with slow agitation on a shaking platform. The cells were then centrifuged at 2600×g for 15 min at 4° C., and the supernatant collected into a fresh 15 mL Falcon tube. The pH of the supernatant was adjusted 6.8 with 1M NaOH. The pH-adjusted supernatant was filtered through a Millex-GP 0.22 μm 25 mm diameter sterile filter (Millipore, Merck, Sigma-Aldrich NZ) into a sterile N2-flushed Hungate tube using a 10 mL syringe, under sterile conditions. The filtered supernatant was frozen at −20° C. until use.
The bacteriocin extracts contained under anaerobic conditions in Hungate tubes were placed into an anaerobic chamber and allowed to thaw. All of the assay components except the bacteriocin extracts, were added and mixed in a sterile Hungate tube inside the anaerobic chamber in proportion to those indicated in Table 3 and then dispensed into wells of a multiwell 96 well plate containing the bacteriocin extracts. […]

[3] = nisin >1 μM added to alfalfa hay; cited from earlier work
ruminal methanogens = settings: mixed rumen in vitro assay; cited from earlier work

Row | Substance | % methanogen growth [1] | inhibition of growth of the indicator methanogen strain (in words) [2] | Mean % Growth JH1 ([2]; Assay 1) | Mean % Inhibition ([2]; Assay 1) | Mean % Growth JH1 ([2]; Assay 2) | Mean % Inhibition ([2]; Assay 2) | ratio of acetate to propionate production (in words) [3] | reduction of methane production (ruminal methanogens)
1 | Nisin | 12.2% | strong inhibition | 5.2% | 97.5% | 18.2% | 81.8% | reduced | 
2 | bovicin HC5 |  |  |  |  |  |  |  | 50%

Source: patent US20240075080A1, “USE OF LACTIC ACID BACTERIA TO INHIBIT METHANOGEN GROWTH OR REDUCE METHANE EMISSIONS” (Fonterra Co-Operative Group Limited, priority 2020, published 2024)
